Legend:
[1] = system: G3BP1 and FUS R495X puncta in U2OS cells with tdTomato-tagged endogenous G3BP1; assay: Pretreatment before FUS R495X transfection, cytoplasmic puncta area; type: cell-based; conditions: 50 μM, 20 min before FUS R495X transfection, 24 h
Protocol: U2OS cells with knock-in of G3BP1-tdTomato ([Yang et al., 2020]) were seeded into 96-well plates (3904; Corning). Either GFP-VCP-A232E or GFP-FUS-R495X were transfected into cells using ViaFect transfection reagent (Promega) 24 h prior to the start of the experiment. For samples to be treated with compounds G3Ia or G3Ia′, Hoechst (1:5,000; Biotium) was added and incubated for 30 min prior to the start of the experiment, washed once with PBS, and the media was changed to 100 μl FluoroBrite DMEM media (Gibco) upon starting the experiment. Imaging of plates was performed on a Cytation C10 spinning disk confocal (BioTek) with a Hamamatsu Orca-Flash 4.0 camera using Gen5 software (version 3.11). Imaging was performed through an Olympus Plan Apo 40× 0.6 NA dry objective with an adjustable collar set to 0.5 μm thickness. Laser autofocus prior to imaging the tdTomato channel was utilized for each image. The temperature was maintained at 37°C on the instrument and the cells were supplied with 5% CO2. A 7 × 7 tilescan was taken at the center of each well, capturing the tdTomato and GFP channels (and Hoechst when present). After completing the tilescan, 100 μl FluoroBrite with 100 μM (2×) G3I compound (vortexed for 5 s) was added to each well and incubated for 20 min before starting another round of imaging in the same locations as the first round. Samples treated with G3Ib or G3Ib′ were analyzed manually, scoring each cell with spontaneous granules for the presence or absence of granules following treatment with the compound. For experiments in which G3I compounds were pretreated prior to transfection, 50 μM of indicated compound or vehicle control were added to U2OS cells 20 min prior to the addition of the transfection reagent. After 24 h of transfection, the cells were washed with PBS, fixed in 4% formaldehyde, and incubated with Hoechst (1:5,000; Biotium) in PBS for 30 min prior to the start of the experiment, washed once with PBS, and at room temperature imaging on the Cytation C10 spinning disk confocal was performed as described above.
Samples treated with G3Ia or G3Ia′ were analyzed using an automated pipeline. Segmentation was performed in both ilastik and Cellpose 2.0. Nuclear segmentation using the Hoechst channel and granule segmentation in both GFP and tdTomato channels was performed via pixel classification in ilastik using small cropped portions of the tilescan as the training dataset for each. Individual cell segmentation was performed in Cellpose 2.0 by inputting a merged RGB of the Hoechst and G3BP1-tdTomato channels. The Cellpose output was then eroded by one pixel and set as a binary mask in Fiji. […]

[2] = system: TDP-43 localization to stress granules in CRISPR-modified U2OS cells; assay: Live imaging of GFP-TDP-43 and mRuby3-G3BP1 in CRISPR-modified U2OS cells; type: cell-based; conditions: 50 μM pretreatment, 250 μM NaAsO2 for 30 min
Protocol: For preincubation of compounds, U2OS or HeLa cells stably expressing G3BP1-GFP or CRISPR-modified cells expressing TDP-43-GFP/G3BP1-GFP were seeded into eight-well Lab-Tek chambered cover glass (Nunc). At least 20 min prior to the experiment, 1 ml FluoroBrite DMEM media (Gibco) supplemented with 10% FBS and 4 mM L-glutamine was combined with 0.1% DMSO or G3I compound (5, 10, or 50 μM). This solution was vortexed for 5 s, added to the cells at 250 μl per well, and left to incubate on the microscope for 20 min. Conditions were maintained at 37°C and 5% CO2 using a Bold Line Cage Incubator (Okolab) and an objective heater (Bioptechs). During this incubation time, 5 xy fields were stored per condition, with each field having ∼20–30 cells within it. After the 20-min incubation, 250 μl of 500 μM or 1 mM (2×) sodium arsenite (Sigma-Aldrich) diluted in the FluoroBrite media with an appropriate amount of G3I compound or DMSO was added to the sample. Imaging began immediately after, with images at each xy field being taken every 1 min. For heat shock experiments, U2OS G3BP1-GFP-expressing cells were seeded into a 35-mm glass bottom dish (MatTek). Prior to the experiment, 1.5 ml FluoroBrite DMEM media (Gibco) supplemented with 10% FBS and 4 mM L-glutamine was combined with 0.1% DMSO or 50 μM G3I compound. The sample was incubated on the environmentally controlled microscope for 20 min. […]

Structure (SMILES) | area of G3BP1 found in puncta compared with vehicle-treated cells [1] | formation and incorporation of FUS R495X into cytoplasmic granules [1] | TDP-43 localization to stress granules [2]
COCCC(NC(=O)C(C)NC(=O)C(NC(=O)C(NC(=O)C(F)CC(C)(C)C)C(C)(C)O)C(C)c1ccccc1)C(=O)N(C)Cc1ccccc1 (stereo not drawn) [G3Ia] | reduced the area of G3BP1 found in puncta | failed to block the formation and incorporation of FUS R495X into cytoplasmic granules | –
CC(NC(=O)C(NC(=O)C(NC(=O)CCC(C)(C)C)C(C)(C)O)C(C)c1ccccc1)C(=O)N1CCCC1c1ccccc1 (stereo not drawn) [G3Ib] | reduced the area of G3BP1 found in puncta | failed to block the formation and incorporation of FUS R495X into cytoplasmic granules | not
CC(NC(=O)C(NC(=O)C(NC(=O)CCC(C)(C)C)C(C)(C)O)C(C)c1ccccc1)C(=O)N1CCCC1c1ccccc1 (stereo not drawn) [G3Ib′] | – | – | a small proportion of TDP-43 localized to stress granules
